Measured values reported in article PMC7835349 (Communications Biology, 2021).
“And” between values parts separate entries of the source, which are not always exact repeats. Identical values can stand only once.

Tested on: telemetered dogs
Experiment: Conscious dog telemetry (QRS amplitude and other cardiovascular parameters, tolerability)
[1] = dog, 0.2 mg/kg 0.5h infusion, 8 h, 0.2 mg/kg
[2] = dog, 0.2 mg/kg 0.5h infusion, 12 h, 0.2 mg/kg
[3] = dog, 0.2 mg/kg 0.5h infusion, 16 h, 0.2 mg/kg
[4] = dog, 0.2 mg/kg 0.5h infusion, 22 h, 0.2 mg/kg
[5] = dog, 0.2 mg/kg 0.5h infusion, -0.75 h, 0.2 mg/kg
[6] = dog, 0.2 mg/kg 0.5h infusion, -1 h, 0.2 mg/kg
[7] = dog, 0.2 mg/kg 0.5h infusion, -1.25 h, 0.2 mg/kg
[8] = dog, 0.85 mg/kg 0.5h infusion, 0.5 h, 0.85 mg/kg
[9] = dog, 0.85 mg/kg 0.5h infusion, 0.75 h, 0.85 mg/kg
[10] = dog, 0.85 mg/kg 0.5h infusion, 1 h, 0.85 mg/kg
[11] = dog, 0.85 mg/kg 0.5h infusion, 1.5 h, 0.85 mg/kg
[12] = dog, 0.85 mg/kg 0.5h infusion, 2 h, 0.85 mg/kg
[13] = dog, 0.85 mg/kg 0.5h infusion, 3 h, 0.85 mg/kg
[14] = dog, 0.85 mg/kg 0.5h infusion, 4 h, 0.85 mg/kg
[15] = dog, 0.85 mg/kg 0.5h infusion, 6 h, 0.85 mg/kg
[16] = dog, 0.85 mg/kg 0.5h infusion, 8 h, 0.85 mg/kg
[17] = dog, 0.85 mg/kg 0.5h infusion, 12 h, 0.85 mg/kg
[18] = dog, 0.85 mg/kg 0.5h infusion, 16 h, 0.85 mg/kg
[19] = dog, 0.85 mg/kg 0.5h infusion, 22 h, 0.85 mg/kg
[20] = dog, 0.85 mg/kg 0.5h infusion, -0.75 h, 0.85 mg/kg
[21] = dog, 0.85 mg/kg 0.5h infusion, -1 h, 0.85 mg/kg
[22] = dog, 0.85 mg/kg 0.5h infusion, -1.25 h, 0.85 mg/kg
[23] = dog, AZD4320 0.2 mg/kg, 0.5 h infusion
[24] = dog, AZD4320 0.85 mg/kg, 0.5 h infusion
[25] = dog, AZD4320 0.85 mg/kg, 3 h infusion
[26] = dog, AZD4320 1 mg/kg, 0.5 h infusion
[27] = dog, AZD4320 1.75 mg/kg, 0.5 h infusion

CN(CCO)CCC(CSc1ccccc1)Nc1ccc(S(=O)(=O)NC(=O)c2ccc(N3CCC(C(O)c4ccccc4-c4ccc(Cl)cc4)CC3)cc2)cc1S(=O)(=O)C(F)(F)F (stereo not drawn) [AZD4320]
Left ventricular -dP/dt (mmHg/s) [1]: 3465 mmHg/s and 3133 mmHg/s and 2471 mmHg/s and 4567 mmHg/s
QRS amplitude (% baseline) [1]: 100 % baseline and 88 % baseline and 97 % baseline and 93 % baseline
Systolic blood pressure (mmHg) [1]: 144 mmHg and 140 mmHg and 137 mmHg and 142 mmHg
ECG PR interval [2]: 101 ms and 87 ms and 98 ms and 66 ms
ECG QRS duration [2]: 49 ms and 38 ms and 40 ms and 37 ms
Left ventricular -dP/dt (mmHg/s) [2]: 3004 mmHg/s and 2664 mmHg/s and 2608 mmHg/s and 4493 mmHg/s
QRS amplitude (% baseline) [2]: 121 % baseline and 90 % baseline and 84 % baseline
Systolic blood pressure (mmHg) [2]: 133 mmHg and 131 mmHg and 134 mmHg and 165 mmHg
ECG PR interval [3]: 108 ms and 95 ms and 94 ms and 77 ms
ECG QRS duration [3]: 47 ms and 37 ms and 40 ms
Left ventricular -dP/dt (mmHg/s) [3]: 2948 mmHg/s and 3176 mmHg/s and 2965 mmHg/s and 4367 mmHg/s
QRS amplitude (% baseline) [3]: 91 % baseline and 93 % baseline and 81 % baseline and 101 % baseline
Systolic blood pressure (mmHg) [3]: 151 mmHg and 132 mmHg and 146 mmHg and 164 mmHg
ECG PR interval [4]: 115 ms and 93 ms and 97 ms and 80 ms
ECG QRS duration [4]: 48 ms and 38 ms and 39 ms
Left ventricular -dP/dt (mmHg/s) [4]: 3689 mmHg/s and 2854 mmHg/s and 2653 mmHg/s and 4540 mmHg/s
QRS amplitude (% baseline) [4]: 114 % baseline and 97 % baseline and 102 % baseline
Systolic blood pressure (mmHg) [4]: 156 mmHg and 142 mmHg
ECG PR interval [5]: 90 ms and 106 ms and 89 ms
ECG QRS duration [5]: 37 ms and 40 ms
Left ventricular -dP/dt (mmHg/s) [5]: 3499 mmHg/s and 3284 mmHg/s and 4521 mmHg/s
QRS amplitude (% baseline) [5]: 97 % baseline and 88 % baseline and 93 % baseline
Systolic blood pressure (mmHg) [5]: 168 mmHg and 148 mmHg and 160 mmHg
ECG PR interval [6]: 91 ms and 102 ms and 82 ms
ECG QRS duration [6]: 38 ms and 40 ms and 37 ms
Left ventricular -dP/dt (mmHg/s) [6]: 3364 mmHg/s and 3529 mmHg/s and 4819 mmHg/s
QRS amplitude (% baseline) [6]: 99 % baseline and 90 % baseline and 93 % baseline
Systolic blood pressure (mmHg) [6]: 161 mmHg and 160 mmHg and 157 mmHg
ECG PR interval [7]: 90 ms and 95 ms and 93 ms
ECG QRS duration [7]: 37 ms and 40 ms
Left ventricular -dP/dt (mmHg/s) [7]: 3238 mmHg/s and 3347 mmHg/s and 4656 mmHg/s
QRS amplitude (% baseline) [7]: 104 % baseline and 91 % baseline and 97 % baseline
Systolic blood pressure (mmHg) [7]: 147 mmHg and 150 mmHg and 151 mmHg
QRS amplitude (% baseline) (dog, 0.2 mg/kg 0.5h infusion, -[…]): 100 % baseline
ECG PR interval [8]: 115 ms and 79 ms
ECG QRS duration [8]: 45 ms and 37 ms and 40 ms
Left ventricular -dP/dt (mmHg/s) [8]: 3662 mmHg/s and 3777 mmHg/s and 3464 mmHg/s
QRS amplitude (% baseline) [8]: 94 % baseline and 95 % baseline and 97 % baseline
Systolic blood pressure (mmHg) [8]: 155 mmHg and 158 mmHg
ECG PR interval [9]: 119 ms and 78 ms
ECG QRS duration [9]: 44 ms and 38 ms and 40 ms
Left ventricular -dP/dt (mmHg/s) [9]: 3170 mmHg/s and 3744 mmHg/s and 3322 mmHg/s
QRS amplitude (% baseline) [9]: 99 % baseline and 91 % baseline and 104 % baseline
Systolic blood pressure (mmHg) [9]: 154 mmHg and 157 mmHg
ECG PR interval [10]: 115 ms and 91 ms
ECG QRS duration [10]: 44 ms and 37 ms and 40 ms
Left ventricular -dP/dt (mmHg/s) [10]: 3366 mmHg/s and 3696 mmHg/s and 3150 mmHg/s
QRS amplitude (% baseline) [10]: 100 % baseline and 90 % baseline and 102 % baseline
Systolic blood pressure (mmHg) [10]: 135 mmHg and 151 mmHg
ECG PR interval [11]: 117 ms and 112 ms
ECG QRS duration [11]: 44 ms and 39 ms and 40 ms
Left ventricular -dP/dt (mmHg/s) [11]: 3030 mmHg/s and 3166 mmHg/s
QRS amplitude (% baseline) [11]: 78 % baseline and 86 % baseline
Systolic blood pressure (mmHg) [11]: 147 mmHg and 138 mmHg
ECG PR interval [12]: 111 ms and 87 ms
ECG QRS duration [12]: 42 ms and 36 ms and 39 ms
Left ventricular -dP/dt (mmHg/s) [12]: 2904 mmHg/s and 3371 mmHg/s
QRS amplitude (% baseline) [12]: 75 % baseline and 83 % baseline
Systolic blood pressure (mmHg) [12]: 144 mmHg and 171 mmHg
ECG PR interval [13]: 99 ms and 81 ms
ECG QRS duration [13]: 37 ms and 33 ms
QRS amplitude (% baseline) [13]: 59 % baseline and 60 % baseline
Systolic blood pressure (mmHg) [13]: 142 mmHg and 156 mmHg
ECG PR interval [14]: 93 ms and 79 ms
ECG QRS duration [14]: 36 ms and 33 ms
QRS amplitude (% baseline) [14]: 56 % baseline and 60 % baseline
Systolic blood pressure (mmHg) [14]: 128 mmHg and 137 mmHg
ECG PR interval [15]: 89 ms and 79 ms
ECG QRS duration [15]: 37 ms and 35 ms
Left ventricular -dP/dt (mmHg/s) [15]: 2074 mmHg/s and 2402 mmHg/s
QRS amplitude (% baseline) [15]: 67 % baseline and 70 % baseline
Systolic blood pressure (mmHg) [15]: 116 mmHg and 117 mmHg
ECG PR interval [16]: 88 ms and 83 ms
ECG QRS duration [16]: 37 ms and 34 ms
Left ventricular -dP/dt (mmHg/s) [16]: 2367 mmHg/s and 2612 mmHg/s
QRS amplitude (% baseline) [16]: 78 % baseline and 80 % baseline
Systolic blood pressure (mmHg) [16]: 120 mmHg and 124 mmHg
ECG PR interval [17]: 85 ms
ECG QRS duration [17]: 40 ms and 36 ms
Left ventricular -dP/dt (mmHg/s) [17]: 3043 mmHg/s and 2589 mmHg/s
QRS amplitude (% baseline) [17]: 84 % baseline and 70 % baseline
Systolic blood pressure (mmHg) [17]: 128 mmHg and 131 mmHg
ECG PR interval [18]: 102 ms and 87 ms
ECG QRS duration [18]: 42 ms and 37 ms
Left ventricular -dP/dt (mmHg/s) [18]: 3119 mmHg/s and 2829 mmHg/s
QRS amplitude (% baseline) [18]: 98 % baseline and 70 % baseline
Systolic blood pressure (mmHg) [18]: 130 mmHg and 147 mmHg
ECG PR interval [19]: 112 ms and 84 ms
ECG QRS duration [19]: 44 ms and 36 ms
Left ventricular -dP/dt (mmHg/s) [19]: 3111 mmHg/s and 3851 mmHg/s
QRS amplitude (% baseline) [19]: 101 % baseline and 78 % baseline
Systolic blood pressure (mmHg) [19]: 132 mmHg and 149 mmHg
ECG PR interval [20]: 111 ms and 99 ms
ECG QRS duration [20]: 45 ms and 39 ms
Left ventricular -dP/dt (mmHg/s) [20]: 3973 mmHg/s and 3847 mmHg/s and 2891 mmHg/s
QRS amplitude (% baseline) [20]: 100 % baseline and 105 % baseline and 103 % baseline
Systolic blood pressure (mmHg) [20]: 162 mmHg and 159 mmHg
ECG PR interval [21]: 108 ms and 98 ms
ECG QRS duration [21]: 44 ms and 36 ms and 39 ms
Left ventricular -dP/dt (mmHg/s) [21]: 3612 mmHg/s and 3810 mmHg/s and 3070 mmHg/s
QRS amplitude (% baseline) [21]: 101 % baseline and 100 % baseline and 107 % baseline
Systolic blood pressure (mmHg) [21]: 149 mmHg and 163 mmHg
ECG PR interval [22]: 110 ms and 96 ms and 89 ms
ECG QRS duration [22]: 44 ms and 37 ms and 40 ms
Left ventricular -dP/dt (mmHg/s) [22]: 3200 mmHg/s and 3594 mmHg/s and 2862 mmHg/s
QRS amplitude (% baseline) [22]: 100 % baseline and 105 % baseline
Systolic blood pressure (mmHg) [22]: 142 mmHg and 165 mmHg and 139 mmHg
QRS amplitude (% baseline) (dog, 0.85 mg/kg 0.5h infusion, -[…]): 100 % baseline
tolerability (dog, 1 mg/kg AZD4320): not tolerated
Effects [23]: No effect level
Tolerated? [23]: Yes
Effects other than QRS amplitude [24]: ↓SBP, ↑HR, ↓dP/dt-, ↓PR interval, ↓QRS interval, ↓LVEDP
Tolerated? [24]: Yes
↓QRS amplitude (% decrease) [24]: 49%
Tolerated? [25]: Yes
↓QRS amplitude (% decrease) [25]: 32%
Effects other than QRS amplitude [26]: poorly tolerated
Tolerated? [26]: No
↓QRS amplitude (% decrease) [26]: 75%
Effects other than QRS amplitude [27]: ↓SBP, ↑HR, ↓dP/dt-, ↓PR interval, ↓QRS interval, ↓LVEDP
Tolerated? [27]: No
↓QRS amplitude (% decrease) [27]: 94%
cardiovascular changes (preclinical development, Supplementary Fig. 1a, b): dose-dependent decreases in QRS amplitude, QRS duration & PR intervals, blood pressure, left ventricular pressure and contractility
